Data on two molecules can be found in article PMC11597353, “Synthesis of Novel Gefitinib-Conjugated 1,2,3-Triazole Derivatives and Their Effect of Inducing DNA Damage and Apoptosis in Tumor Cells” (Molecules, 2024).

Series [1] concerns HepG2 cells. In words: Annexin V-FITC/PI dual staining, flow cytometry apoptosis. Format: cell-based, human. Conditions: 48 h. Here is the method:
HepG2 cells were treated with DMSO or different concentrations of 11m and 11t for 48 h, followed by staining with Annexin-V and PI. The proportion of apoptotic cells was then analyzed using flow cytometry. […] Compared to the control group, the proportion of apoptotic cells increased gradually with increasing drug concentrations (p < 0.01, p < 0.05).
HepG2 cells were seeded in 6-well plates at a density of […] and incubated for 24 h. They were then treated with 11m or 11t at concentrations of 2, 4, and 8 μM for 48 h. After digestion with trypsin without EDTA and washing with PBS, the cells were resuspended in 500 µL Binding Buffer at a concentration of 1 × 10^6 cells/mL. Then, 5 μL of Annexin V-FITC was added, mixed well, followed by the addition of 5 μL Propidium Iodide, mixed gently, and incubated in the dark at room temperature (25 °C) for 10 min. Detection was performed using a flow cytometer (BD Accuri™ C6 Plus) within 1 h.
For orientation: A flow cytometer gives signals particle by particle.

The test system of series [2] is HepG2 cells. In words: Transwell migration assay. Conditions: HepG2, 2, 4, 8 μM, 48 h, vs control, p < 0.01. Format: cell-based, human. An excerpt:
To investigate the effect of the compounds on the migration of wild-type liver cancer cells, we conducted wound healing and Transwell assays to assess changes in the migration ability of HepG2 cells after treatment with compounds 11m and 11t. […] The Transwell migration assay, another important method for evaluating cell migration, involves seeding tumor cells in a chamber and assessing their migration ability by counting the number of cells that pass through the membrane. […] These findings indicate that compounds 11m and 11t can inhibit the migration ability of liver cancer cells in a concentration-dependent manner.
HepG2 cells were starved in serum-free Gibco DMEM for 24 h, then seeded in the upper chamber of a 24-well Transwell plate (Corning Inc., Corning, NY, USA) at a density of 5 × 10^5 cells/mL. 11m or 11t was added to achieve final concentrations of 0, 2, 4, and 8 μM. The upper chamber’s total volume was 200 μL, while the lower chamber contained 600 μL of Gibco DMEM with 20% serum. After 48 h of incubation, the culture medium was washed off with PBS, and the cells were fixed with 4% paraformaldehyde at room temperature for 20 min. […] Images were taken under an inverted microscope, and quantification was performed using ImageJ.

Series [3] relates to HepG2 cells. As to the kind of experiment: CCK8 cell viability / IC50 assay on HepG2 cells. Particulars: for % Cell Viability (10 μM): 72 h; for IC50: read-out: HepG2, IC50 (μM) 72 h.
The test system of the next series is Kunming mice. In words: Acute toxicity test in mice. Format: in vivo. Here is the method: To further assess the safety of the compounds, we conducted an acute toxicity experiment on mice.
Liver function was evaluated by measuring serum glutamic pyruvic transaminase (GPT) and glutamic oxaloacetic transaminase (GOT) levels (Figure 10C). GPT and GOT are commonly used indicators for assessing liver function, reflecting physiological and pathological changes in the liver. Elevated serum levels of GPT and GOT indicate damage to liver cells or mitochondria. […] This provides additional evidence for the high safety of the compound and experimental data for clinical drug safety (p > 0.05).
Six 5-week-old, SPF-grade, healthy, male Kunming mice (31.13 ± 1.13 g) were purchased from Henan Skibest Biotechnology Co., Ltd. (Anyang, China) (License No.: SCXK (Yu) 2020-0005). They were housed at the SPF animal center of the School of Basic Medicine and Forensic Science, Henan University of Science and Technology, with normal solid food and drinking water provided, and a 12 h light–dark cycle each day. After one week of acclimatization, the mice were randomly divided into two groups: the control group and the treatment group (11t), which were administered a single gavage of the corresponding volume of solvent and drug (drug concentration: 800 mg/kg; drug solvent: 10% DMSO + 40% PEG300 + 5% Tween 80 + 45% saline) at a dosage of 0.1 mL/10 g. After administration, the mice’s activity was monitored daily, and their weight was recorded. After 14 days, blood was collected via the eye and the mice were euthanized by cervical dislocation. The heart, liver, spleen, lungs, and kidneys were extracted, rinsed with saline, and the surface moisture was absorbed with filter paper. The weight of all organs was measured using an electronic balance. The organ coefficient was calculated as organ weight/body weight × 100. Blood samples were left at room temperature for 1 h, then centrifuged at 2500 rpm for 20 min to measure liver function indicators GPT and GOT (Nanjing Jiancheng Bioengineering Institute, Nanjing, China). After weighing the organs, they were fixed in 4% tissue fixative for 24 h, dehydrated, cleared, embedded in paraffin, and stained with HE for microscopic observation of the tissues.

The mark [4] stands for this setting: mice, single gavage 800 mg/kg, day 14.

The structures appear in SMILES notation.

As for `COc1cc2ncnc(Nc3cccc(-c4cn(Cc5ccc(I)cc5)nn4)c3)c2cc1OCCCN1CCOCC1` [Compound 11m, N-(3-(1-(4-iodobenzyl)-1H-1,2,3-triazol-4-yl)phenyl)-7-methoxy-6-(3-morpholinopropoxy)quinazolin-4-amine], the melting point – broadly, the temperature of the solid-liquid transition – was 185 to 186 °C. The “total proportion of apoptotic HepG2 cells” value (“total proportion” below) with HepG2 cells [1] (2 μM) was 1.59%. Besides, the “total proportion” value in the series with HepG2 cells [1] (4 μM) turned out to be 9.46%. The “total proportion” value in the series with HepG2 cells [1] (8 μM) stood at 31.66%. Moreover, the “number of cells that migrated through the microporous membrane” value with HepG2 cells [2] is on record as “significantly reduced”. For the same molecule, in the series on HepG2 cells [3], the “% Cell Viability (10 μM)” value came to 5.86 ± 0.04% and the IC50 (in general, the concentration that gives 50% inhibition) worked out at 3.08 ± 0.37 µM.

For the molecule `COc1cc2ncnc(Nc3cccc(-c4cn(Cc5cccc(I)c5)nn4)c3)c2cc1OCCCN1CCOCC1` [Compound 11t, N-(3-(1-(3-iodobenzyl)-1H-1,2,3-triazol-4-yl)phenyl)-7-methoxy-6-(3-morpholinopropoxy)quinazolin-4-amine], the toxicity in mice result in the series with Kunming mice (acute toxicity, 800 mg/kg gavage) was “low toxicity”. The “body weight vs control group” value in the series with Kunming mice (mice, single gavage 800 mg/kg, 14 days, p > 0.05) is recorded as “no statistically significant differences”. In the series with Kunming mice (setting [4]), the “histological analysis (H&E) of hearts, livers, spleens, lungs, and kidneys” value is listed as “no significant toxic characteristics”; the “organ indices of the heart, liver, spleen, lungs, and kidneys vs control group” value was “no statistically significant differences”; the organ morphological examination entry is “No pathological morphology was observed”. In the series on Kunming mice (mice, single gavage 800 mg/kg, day 14, p > 0.05), the “serum GPT and GOT (biochemical indicators) vs control group” value is “no statistically significant differences”. In addition, the “total proportion” value in the series with HepG2 cells [1] (2 μM) is on record as 13.44%. For the same molecule, in the series with HepG2 cells [1] (4 μM), the “total proportion” value is on record as 33.57%. In addition, the “total proportion” value in the series on HepG2 cells [1] (8 μM) was determined as 62.82%. The “number of cells that migrated through the microporous membrane” value with HepG2 cells [2] was “significantly reduced”. Moreover, in the series with HepG2 cells [3], the “% Cell Viability (10 μM)” value was determined as 5.22 ± 0.36% and the IC50 came to 3.6 ± 0.53 µM.
